The text below walks through data of ChEMBL document CHEMBL2417411, “Design and synthesis of novel 2'-hydroxy group substituted 2-pyridone derivatives as anticancer agents” (Eur J Med Chem, 2013).

In general, IC50 refers to the midpoint of a concentration-inhibition curve. Low readings indicate greater potency, high ones weaker potency. For orientation: logP means a log measure of how a compound divides between an organic and an aqueous phase. The low end stands for lower lipophilicity, the high end for higher lipophilicity.

In series [1] the test system is SW480. Kind of series: Ratio of 5-fluorouracil IC50 to compound IC50 for human SW480 cells after 48 hrs by MTT assay. In kind it is functional. A general note: Formazan colour is commonly taken as a measure of viable cells.
Series [2] concerns HeLa. The experiment in a line: Ratio of 5-fluorouracil IC50 to compound IC50 for human HeLa cells after 48 hrs by MTT assay. In kind it is functional.
For series [3], the system named is A549. Kind of series: Ratio of 5-fluorouracil IC50 to compound IC50 for human A549 cells after 48 hrs by MTT assay. In kind it is functional.
Series [4] concerns SW480. The experiment in a line: cells. The conditions noted are these: Homo sapiens, SW480, 48 h.
Description: Cytotoxicity against human SW480 cells after 48 hrs by MTT assay
The subject of the next series is MDA-MB-231. Kind of series: cells. The conditions noted are these: Homo sapiens, MDA-MB-231, 48 h.
A further series has as its system SGC-7901. Kind of series: cells. Conditions: Homo sapiens, SGC-7901, 48 h.
The next series is described as follows: cells. Conditions: Homo sapiens, QGY7701, 48 h.
The subject of series [5] is A549. The experiment in a line: cells. The conditions noted are these: Homo sapiens, A549, 48 h.
Description: Cytotoxicity against human A549 cells after 48 hrs by MTT assay
For series [6], the system named is HeLa. Kind of series: cells. Conditions: Homo sapiens, 48 h.
Description: Cytotoxicity against human HeLa cells after 48 hrs by MTT assay
The next series is described as follows: physchem. Conditions: octanol/water.

Description for MDA-MB-231: Cytotoxicity against human MDA-MB-231 cells after 48 hrs by MTT assay
Description for SGC-7901: Cytotoxicity against human SGC7901 cells after 48 hrs by MTT assay
Description for physchem: Lipophilicity, log P of the compound

With `COc1ccc(C(=O)c2ccc(=O)n(-c3ccccc3C)c2)c(OCc2cn(Cc3ccc(Cl)cc3)nn2)c1`, the “Ratio IC50” value in the series with SW480 [1] stood at 74.8; with HeLa [2], 30.6; in the series with A549 [3], 6.5. Moreover, the IC50 in the series with SW480 [4] is 0.21 µM; in the series on MDA-MB-231, 0.32 µM; in the series on SGC-7901, 1.1 µM; in “cells”, > 30 µM; in the series on A549 [5], 0.86 µM; in the series with HeLa [6], 0.54 µM. In “physchem”, this compound returned a logP of 4.05.
Take `COc1ccc(C(=O)C2=CC(c3ccccc3C)C(=O)C=C2)c(OCc2cn(Cc3ccc(C(C)(C)C)cc3)nn2)c1` (configuration not stated): the “Ratio IC50” value is reported as 142.7 in the series on SW480 [1] and 48.5 in the series with HeLa [2]. In addition, the IC50 with SW480 [4] was determined as 0.11 µM; with MDA-MB-231 it was 3.35 µM; in the series on SGC-7901, 3.52 µM; in “cells” it was 3.39 µM; in the series with A549 [5], 1.73 µM; in the series on HeLa [6] it was 0.34 µM.
With `COc1ccc(C(=O)c2ccc(=O)n(-c3ccccc3C)c2)c(OC(=O)c2ccc(C)cc2)c1`, the IC50 in the series on SW480 [4] was 2.31 µM; in the series with MDA-MB-231, 0.54 µM; in the series with SGC-7901, 3.96 µM; in “cells”, > 30 µM; in the series with A549 [5], 3.24 µM; in the series on HeLa [6], 3.27 µM. The compound further displayed a logP in the series “physchem” of 4.32.
In the case of `CCCCC(CC)C(=O)Oc1cc(OC)ccc1C(=O)c1ccc(=O)n(-c2ccccc2C)c1` (configuration not stated), the IC50 was 3.35 µM in the series with SW480 [4]; 0.37 µM in the series with MDA-MB-231; 1.48 µM with SGC-7901; > 30 µM in “cells”; 2.95 µM with A549 [5]; 2.28 µM in the series on HeLa [6]. In addition, the logP in “physchem” is 5.04.
As for `COc1ccc(C(=O)c2ccc(=O)n(-c3ccccc3C)c2)c(OC(=O)OCc2ccccc2)c1`, the “Ratio IC50” value turned out to be 30.2 in the series with SW480 [1], 35.9 in the series on HeLa [2] and 9.5 with A549 [3]. Moreover, the IC50 stood at 0.52 µM in the series on SW480 [4]; 0.75 µM in the series with MDA-MB-231; 0.69 µM with SGC-7901; 4.33 µM in “cells”; 0.59 µM with A549 [5]; 0.46 µM with HeLa [6]. The logP in “physchem” was found to be 4.23.
